{
  "source": "patent US20030195170A1",
  "about": "“Novel polymorphs and pseudopolymorphs of risedronate sodium” (priority 2002, published 2003)",
  "format_in_all_cases": "physicochemical",
  "key": {"[1]": {"test": "Physical stability of crystal forms at high relative humidity (one week storage)", "source_text": "X-ray diffraction data described herein was obtained by the powder diffraction method. X-Ray powder diffraction data were obtained using methods known in the art with a SCINTAG powder X-Ray diffractometer model X'TRA equipped with a solid state detector. Copper radiation of 1.5418 Å was used. A round aluminum sample holder with a round zero background quartz plate, with cavity of 25 mm×0.5 mm.\nThermogravimetric analysis (TGA) is a technique of thermal analysis well known in the art and measures the change in weight of a sample as a function of temperature. The technique is particularly well suited for measurement of, for example, decomposition and desolvation. TGA results reported herein were obtained using a Mettler TG50. Sample size was between about 6 and about 15 mg. Samples were analyzed at a heating rate of 10° C./min from 25° C. to 250 C. The oven was purged with nitrogen gas at a flow rate of 40 ml/min. Standard alumina crucibles covered by lids with one hole were used.\n(§1) The stability of crystalline forms of risedronate sodium against transformation to form A is measured by exposing a sample to an atmosphere having a percent relative humidity (RH or %RH) of at least about 50% at a temperature greater than room temperature for a period of time. It is convenient to evaluate the stability of a crystalline form of risedronate sodium against transformation to form A by exposing a sample to an atmosphere having RH of about 75% at a temperature of 40° C. for a period of at least 3 months. The experience of the skilled artisan teaches that a pharmaceutical that is stable under these conditions will be stable for at least 2 years at room temperature."}, "[2]": {"test": "Physical stability of crystal forms at high relative humidity (one week storage)", "conditions": "80%-100% RH at room temperature for at least one week; 'not substantially' = not more than about 20%"}, "[3]": {"test": "Stability of form B against transformation to form A at 40° C. / 75% RH", "experimental": "X-ray diffraction analysis can be used to detect and quantify one crystalline form of risedronate sodium in another.\nas §1"}, "[4]": {"test": "Stability test of risedronate tablets at 40° C., 75% RH (crystal form by X-Ray powder diffraction)", "conditions": "5 months, stressed conditions of 40° C. and 75% RH", "source_text": "The crystal form (detected from X-Ray powder diffraction data) of Risedronate active ingredient in the tablet are shown in the following table."}, "[5]": {"conditions": "relative humidity 80%, one week storage, listed as D (MS-273), monosodium salt"}},
  "data": [
    {"smiles": "O=P([O-])(O)C(O)(Cc1cccnc1)P(=O)(O)O.[Na+]", "note": "[Form F, 1-hydroxy-2(3-pyridinyl)ethylidene bis phosphonic acid monosodium salt]", "values": [
      {"measurement": "TGA Weight Loss (%)", "setting": "[1]; relative humidity 20-60%, one week storage", "value": "4-6%"},
      {"measurement": "Resulting form", "setting": "[1]; relative humidity 80%, one week storage, listed as form F, monosodium salt", "value": "a mixture of form BB"},
      {"measurement": "TGA Weight Loss (%)", "setting": "[1]; relative humidity 80-100%, one week storage", "value": "11.3-12.3%"},
      {"measurement": "Resulting form", "setting": "[1]; relative humidity 80-100%, one week storage, listed as F (LB-104 160 C. 8 hr), monosodium salt", "value": "BB > A"},
      {"measurement": "Resulting form", "setting": "[1]; relative humidity 80-100%, one week storage, listed as form F, monosodium salt", "value": "form BB"},
      {"measurement": "Resulting form", "setting": "[1]; relative humidity 100%, one week storage, listed as form F, monosodium salt", "value": "form BB"},
      {"measurement": "Rearrangement to the hemipentahydrate form", "setting": "[1]; up to 100% relative humidity, one week storage", "value": "does not substantially rearrange"}
    ]},
    {"smiles": "O=P([O-])(O)C(O)(Cc1cccnc1)P(=O)(O)O.[Na+]", "note": "[Form D, 1-hydroxy-2(3-pyridinyl)ethylidene bis phosphonic acid monosodium salt]", "values": [
      {"measurement": "Resulting form", "setting": "[1]; [5]", "value": "D > B"},
      {"measurement": "TGA Weight Loss (%)", "setting": "[1]; [5]", "value": 1.1, "unit": "%"},
      {"measurement": "Resulting form", "setting": "[1]; relative humidity 80%, one week storage, listed as form D, monosodium salt", "value": "a mixture of form D and form B"},
      {"measurement": "Resulting form", "setting": "[1]; relative humidity 80-100%, one week storage, monosodium salt", "value": "form B"}
    ]},
    {"smiles": "O=P([O-])(O)C(O)(Cc1cccnc1)P(=O)(O)O.[Na+]", "note": "[Form A, 1-hydroxy-2(3-pyridinyl)ethylidene bis phosphonic acid monosodium salt, reference compound]", "values": [
      {"measurement": "TGA Weight Loss (%)", "setting": "[1]; relative humidity 80%, one week storage, listed as A (LB-91), monosodium salt", "value": 13.6, "unit": "%"}
    ]},
    {"smiles": "O=P([O-])(O)C(O)(Cc1cccnc1)P(=O)(O)O.[Na+]", "note": "[Form G, 1-hydroxy-2(3-pyridinyl)ethylidene bis phosphonic acid monosodium salt]", "values": [
      {"measurement": "TGA Weight Loss (%)", "setting": "[1]; relative humidity 20-80%, one week storage", "value": "9.4-10.2%"},
      {"measurement": "TGA Weight Loss (%)", "setting": "[1]; relative humidity 100%, one week storage", "value": 12.6, "unit": "%"},
      {"measurement": "Resulting form", "setting": "[1]; relative humidity 100%, one week storage, listed as G (MS-257 160 C. 8 hr), monosodium salt", "value": "G + A"},
      {"measurement": "Resulting form", "setting": "[1]; relative humidity 100%, one week storage, listed as form G, monosodium salt", "value": "a mixture of form G and form A"}
    ]},
    {"smiles": "O=P([O-])(O)C(O)(Cc1cccnc1)P(=O)(O)O.[Na+]", "note": "[Form C, 1-hydroxy-2(3-pyridinyl)ethylidene bis phosphonic acid monosodium salt]", "values": [
      {"measurement": "Conversion to form A", "setting": "[2]", "value": "does not substantially convert"},
      {"measurement": "TGA Weight Loss (%)", "setting": "[1]; relative humidity 80%, one week storage, listed as C (LB-87), monosodium salt", "value": 16.0, "unit": "%"},
      {"measurement": "Resulting form", "setting": "[1]; relative humidity 80%, one week storage, listed as form C, monosodium salt", "value": "a mixture of form C and form H"}
    ]},
    {"smiles": "O=P([O-])(O)C(O)(Cc1cccnc1)P(=O)(O)O.[Na+]", "note": "[Form E, 1-hydroxy-2(3-pyridinyl)ethylidene bis phosphonic acid monosodium salt]", "values": [
      {"measurement": "TGA Weight Loss (%)", "setting": "[1]; relative humidity 80%, one week storage, listed as E (MS-277), monosodium salt", "value": 14.0, "unit": "%"},
      {"measurement": "Resulting form", "setting": "[1]; relative humidity 80%, one week storage, listed as form E, monosodium salt", "value": "form A with a small quantity of form D"}
    ]},
    {"smiles": "O=P([O-])(O)C(O)(Cc1cccnc1)P(=O)(O)O.[Na+]", "note": "[Form B, 1-hydroxy-2(3-pyridinyl)ethylidene bis phosphonic acid monosodium salt]", "values": [
      {"measurement": "Part of form B that transforms to form A", "setting": "[3]; RH of 75% at 40° C. for at least three months", "value": "less than 20%"},
      {"measurement": "Conversion to form A hemipentahydrate", "setting": "[3]; storage at 40° C. and 75% RH for 6 months, 'not substantially' = not more than about 20%", "value": "does not substantially convert"},
      {"measurement": "Stability of form B in tablets", "setting": "[4]", "value": "stable"},
      {"measurement": "Conversion to form A hemipentahydrate", "setting": "[1]; 75% to 100% RH for one week or more, 'not substantially' = not more than about 20%", "value": "does not substantially convert"},
      {"measurement": "TGA Weight Loss (%)", "setting": "[1]; relative humidity 80%, one week storage, listed as B (LB-89), monosodium salt", "value": 6.5, "unit": "%"}
    ]}
  ]
}
